{
  "source": "patent US20160018400A1",
  "about": "“DIAGNOSTIC AND PROGNOSTIC BIOMARKERS FOR PROSTATE CANCER AND OTHER DISORDERS” (CANCER RESEARCH TECHNOLOGY LIMITED, priority 2013, published 2016)",
  "key": {"[1]": {"system": "VPS13A", "assay": "VPS13A protein expression in LNCaP cells after calcium modifiers (SDS-PAGE / western blot)", "assay_type": "cell-based", "conditions": "LNCaP cells treated for 8 hours with 10 μM; lysates probed for VPS13A and tubulin", "experimental": "Non-targeting control LNCaP cells or siVPS13A cells were treated for 8 hours with 10 μM BAPTA (B), calcimycin (Cal) or control (C). Protein lysates were separated by SDS-PAGE and probed for VPS13A and tubulin.\nCells were fixed and stained as before using anti-VPS13A antibody (1:50, Human Protein Atlas) and LAMP2 antibody (1:500, BD Biosciences) (8). Cells were imaged using Alexafluor 594 and 488 secondary antibodies (Molecular Probes) and mounted with DAPI. All images were obtained using a Nikon Eclipse confocal microscope using a 100× objective. For calcium modifying experiments, LNCaP cells were grown as before to ˜50% confluence before being treated for 8 hours with 10 μM of the calcium ionophore, calcimycin (Invitrogen) or 10 μM of the calcium chelating agent 1,2-bis(o-aminophenoxy)ethane-N,N,N′,N′-tetraacetic acid (BAPTA) (Invitrogen) (Whitaker et al., 2007).\nProtein lysates were produced as described (8) and separated by SDS-PAGE before blotting for VPS13A (1:1000, Human Protein Atlas), FAK (1:1000, Cell Signaling Technology), pTyr397-FAK (1:1000, Cell Signaling Technology) or tubulin (1:2000, Abcam)."}, "[2]": {"system": "LNCaP cells", "assay": "Confocal microscopy of VPS13A vesicle association/fusion with LAMP2-positive lysosomes", "assay_type": "cell-based", "experimental": "FIG. […] The cells were then fixed and stained for LAMP2 and VPS13A. Using the 100× lens, the number of lysosomes in 10 fields of view were counted. Then the number of VPS13A fusion events was counted in the same field of view. A fusion event was classed as a VPS13A vesicle touching or integrated into a LAMP2 positive lysosome. *Data are shown normalised to the number of lysosomes in each field of view. P-values were calculated using a Mann-Whitney 2-tailed t-test.\nCells were fixed and stained as before using anti-VPS13A antibody (1:50, Human Protein Atlas) and LAMP2 antibody (1:500, BD Biosciences) (8). Cells were imaged using Alexafluor 594 and 488 secondary antibodies (Molecular Probes) and mounted with DAPI. All images were obtained using a Nikon Eclipse confocal microscope using a 100× objective. […]"}},
  "data": [
    {"smiles": "O=C(O)CN(CC(=O)O)c1ccccc1OCCOc1ccccc1N(CC(=O)O)CC(=O)O", "note": "[BAPTA, 1,2-bis(o-aminophenoxy)ethane-N,N,N′,N′-tetraacetic acid]", "values": [
      {"measurement": "intracellular levels of VPS13A (VPS13A protein expression)", "setting": "[1]", "value": "no significant change in VPS13A expression"}
    ]},
    {"smiles": "CO/C1=C\\C(C)=C\\[C@@H](C)[C@@H](O)[C@@H](C)C/C(C)=C/C=C/[C@H](OC)[C@@H]([C@@H](C)[C@@H](O)[C@H](C)[C@@]2(O)C[C@@H](O)[C@H](C)[C@@H](C(C)C)O2)OC1=O", "note": "[bafilomycin]", "values": [
      {"measurement": "VPS13A vesicle integration into the lysosome membrane", "setting": "[2]; cells treated with bafilomycin, LAMP2 staining", "value": "VPS13A vesicles are seen integrated into the lysosome membrane"}
    ]},
    {"smiles": "CNc1ccc2oc(C[C@H]3O[C@@]4(CC[C@H]3C)O[C@H]([C@H](C)C(=O)c3ccc[nH]3)[C@H](C)C[C@H]4C)nc2c1C(=O)O", "note": "[calcimycin]", "values": [
      {"measurement": "intracellular levels of VPS13A (VPS13A protein expression)", "setting": "[1]", "value": "increase in the intracellular levels of VPS13A"},
      {"measurement": "number of VPS13A vesicles that associated with lysosomes (fusion events, normalised to number of lysosomes)", "setting": "[2]; LNCaP cells, LAMP2 and VPS13A staining, p=0.0004", "value": "highly significant decrease"}
    ]}
  ]
}
